Patent US5300491A, “Treatment of protozoal infection” (priority 1992, dated 1994)
Converted amounts (≈) assume the structure as drawn. “And” between values parts separate entries of the source, which are not always exact repeats. Identical values can stand only once. Like-named read-outs stand apart in the source and are kept apart here.

Legend:
Trichomonas vaginalis [1] = assay: Trichomonas vaginalis assay (MLC, aerobic and anaerobic); format: cell-based
Description: (§1) All isolates were treated with either bacitracin or zinc bacitracin.
(§2) Prior to being diluted with the medium, the bacitracins were initially solubilized in water to 250 mg/ml. The zinc salt was solubilized in acidified water (60 μl HC1/ml). Duplicate plates of each isolate were prepared. one set of plates was exposed to an aerobic environment; and, the second set was exposed to an anaerobic environment. An Oxoid HP 11 anaerobic gas chamber and BR 38 gas generating kit were used to produce the anaerobic environment.

E. histolvtica = details: fifty South African patients; 2.4 g daily for 5 days; cited from earlier work
Tritrichomonas gallinae = Tritrichomonas gallinae assay (MLC); format: cell-based; details: isolate GH85; anaerobic
Description: A single T. gallinae isolate was collected and treated with bacitracin or zinc bacitracin in accordance with the procedure of Example IV. Duplicate plates of the isolate were prepared. one plate was exposed to an aerobic environment. The second plate was exposed to an anaerobic environment.

Giardia lamblia = format: cell-based; details: Portland isolate; anaerobic; 24 hours; two lines of values
Description: A Portland isolate of G. lamblia was treated with bacitracin and zinc bacitracin according to the procedure of Example IV. An Oxoid HP 11 anaerobic gas chamber and BR 38 gas generating kit were used to produce an anaerobic environment. […] The parasites were incubated in the presence of the treating reagent for 2 4 hours. The viability of the parasites was based on morphology and motility.

T. foetus = details: cited from earlier work; for side effects: in vivo
Trichomonas vaginalis [2] = assay: Trichomonas vaginalis assay of other divalent metal salts of bacitracin (MIC); format: cell-based
Description: as §1, §2
The procedure of Example IV was repeated, substituting bacitracin salts of the following metals for zinc bacitracin: nickel, cadmium, cobalt, manganese, copper and iron. The MLCs of the bacitracin salts were out of range. However, the MICs indicate that, with the exception of ferrous bacitracin, complexation with a divalent metal salt enhanced the activity of bacitracin.

In the case of `Cc1ncc([N+](=O)[O-])n1CCO` [Metronidazole], the MLC (Trichomonas vaginalis [1]; isolate 1031, metronidazole-sensitive, aerobic) is reported as 40 µg/mL (≈ 234 µM), the MLC (Trichomonas vaginalis [1]; isolate 1031, metronidazole-sensitive, anaerobic) is reported as 4 µg/mL (≈ 23.4 µM) and the MLC (Trichomonas vaginalis [1]; isolate 1043, metronidazole-sensitive, aerobic) is reported as 20 µg/mL (≈ 117 µM). The MLC (Trichomonas vaginalis [1]; isolate 1043, metronidazole-sensitive, anaerobic) was < 1 µg/mL, the MLC (Trichomonas vaginalis [1]; isolate 1044, metronidazole-sensitive, aerobic) was < 10 µg/mL and the MLC (Trichomonas vaginalis [1]; isolate 1044, metronidazole-sensitive, anaerobic) was < 1 µg/mL. The MLC (Trichomonas vaginalis [1]; isolate 1064, metronidazole-sensitive, anaerobic) was < 1 µg/mL, the MLC (Trichomonas vaginalis [1]; isolate 1065, metronidazole-sensitive, aerobic) was < 10 µg/mL and the MLC (Trichomonas vaginalis [1]; isolate 1065, metronidazole-sensitive, anaerobic) was < 1 µg/mL. For the same compound, the MLC (Trichomonas vaginalis [1]; isolate 1165, metronidazole-sensitive, aerobic) was 40 µg/mL (≈ 234 µM), the MLC (Trichomonas vaginalis [1]; isolate 1165, metronidazole-sensitive, anaerobic) was < 1 µg/mL and the MLC (Trichomonas vaginalis [1]; isolate 1910, metronidazole-sensitive, aerobic) was 40 µg/mL (≈ 234 µM). For the same compound, the MLC (Trichomonas vaginalis [1]; isolate 1910, metronidazole-sensitive, anaerobic) was 2 µg/mL (≈ 11.7 µM), the MLC (Trichomonas vaginalis [1]; isolate 6950, metronidazole-sensitive, aerobic) was 20 µg/mL (≈ 117 µM) and the MLC (Trichomonas vaginalis [1]; isolate 6950, metronidazole-sensitive, anaerobic) was 2 µg/mL (≈ 11.7 µM). It also gave an MLC (Trichomonas vaginalis [1]; isolate 89532.2, metronidazole-insensitive, aerobic) of 200 µg/mL (≈ 1170 µM), an MLC (Trichomonas vaginalis [1]; isolate 89532.2, metronidazole-insensitive, anaerobic) of 2 µg/mL (≈ 11.7 µM) and an MLC (Trichomonas vaginalis [1]; isolate 90576, metronidazole-insensitive, aerobic) of 80 µg/mL (≈ 467 µM). The MLC (Trichomonas vaginalis [1]; isolate 90576, metronidazole-insensitive, anaerobic) was 2 µg/mL (≈ 11.7 µM), the MLC (Trichomonas vaginalis [1]; isolate CDC85, metronidazole-insensitive, aerobic) was 200 µg/mL (≈ 1170 µM) and the MLC (Trichomonas vaginalis [1]; isolate CDC85, metronidazole-insensitive, anaerobic) was 20 µg/mL (≈ 117 µM). The MLC (Trichomonas vaginalis [1]; isolate IR78, metronidazole-insensitive, aerobic) was 200 µg/mL (≈ 1170 µM), the MLC (Trichomonas vaginalis [1]; isolate IR78, metronidazole-insensitive, anaerobic) was 4 µg/mL (≈ 23.4 µM) and the MLC (Trichomonas vaginalis [1]; isolate PHLS289, metronidazole-insensitive, aerobic) was 60 µg/mL (≈ 351 µM). It also gave an MLC (Trichomonas vaginalis [1]; isolate PHLS289, metronidazole-insensitive, anaerobic) of 8 µg/mL (≈ 46.7 µM), an MLC (Trichomonas vaginalis [1]; isolate STH-1, metronidazole-insensitive, aerobic) of 60 µg/mL (≈ 351 µM) and an MLC (Trichomonas vaginalis [1]; isolate STH-1, metronidazole-insensitive, anaerobic) of 8 µg/mL (≈ 46.7 µM). The MLC (Trichomonas vaginalis [1]; isolate UCH-1, metronidazole-sensitive, aerobic) was 40 µg/mL (≈ 234 µM), the MLC (Trichomonas vaginalis [1]; isolate UCH-1, metronidazole-sensitive, anaerobic) was 4 µg/mL (≈ 23.4 µM) and the MLC (Trichomonas vaginalis [1]; isolate UCH-2, metronidazole-sensitive, aerobic) was < 10 µg/mL. For the same compound, the MLC (Trichomonas vaginalis [1]; isolate UCH-2, metronidazole-sensitive, anaerobic) was 2 µg/mL (≈ 11.7 µM), the MLC (Trichomonas vaginalis [1]; isolate UCH-M1, metronidazole-sensitive, aerobic) was 20 µg/mL (≈ 117 µM) and the MLC (Trichomonas vaginalis [1]; isolate UCH-M1, metronidazole-sensitive, anaerobic) was 4 µg/mL (≈ 23.4 µM). For the same compound, the MLC (Trichomonas vaginalis [1]; isolate UOB-1, metronidazole-sensitive, aerobic) was 20 µg/mL (≈ 117 µM), the MLC (Trichomonas vaginalis [1]; isolate UOB-1, metronidazole-sensitive, anaerobic) was < 1 µg/mL and the “treatment failure with persistent disease” value (E. histolvtica) was 55%. The MLC (Tritrichomonas gallinae) was 2 µg/mL (≈ 11.7 µM), the “MLC (first of the two columns per drug)” value (Giardia lamblia) was < 1 µg/mL and the “MLC (second of the two columns per drug)” value (Giardia lamblia) was 2 µg/mL and < 1 µg/mL.

For `Cc1ncc([N+](=O)[O-])n1C` [dimetridazole], the side effects (T. foetus; iv) is given as “respiratory difficulty, ataxia and lung collapse”, the side effects (T. foetus; po) is given as “rumen stasis and anorexia” and the effectiveness (T. foetus; multiple oral doses) is given as “moderately effective”. The effectiveness (T. foetus; single intravenous administration) was “moderately effective”.

Cadmium Bacitracin showed an MIC (Trichomonas vaginalis [2]; T. vaginalis isolate 1910) of 150 µg/mL and an MIC (Trichomonas vaginalis [2]; T. vaginalis isolate UCH1) of 310 µg/mL.

For Cobalt Bacitracin, the MIC (Trichomonas vaginalis [2]; T. vaginalis isolate 1910) was 1250 µg/mL and the MIC (Trichomonas vaginalis [2]; T. vaginalis isolate UCH1) was 1250 µg/mL.

With Copper Bacitracin the MIC (Trichomonas vaginalis [2]; T. vaginalis isolate 1910) was 1250 µg/mL and the MIC (Trichomonas vaginalis [2]; T. vaginalis isolate UCH1) was 2500 µg/mL.

With Ferrous Bacitracin the MIC (Trichomonas vaginalis [2]; T. vaginalis isolate 1910) was > 10000 µg/mL and the MIC (Trichomonas vaginalis [2]; T. vaginalis isolate UCH1) was > 10000 µg/mL.

In the case of Manganese Bacitracin, the MIC (Trichomonas vaginalis [2]; T. vaginalis isolate 1910) is reported as 1260 µg/mL and the MIC (Trichomonas vaginalis [2]; T. vaginalis isolate UCH1) is reported as 150 µg/mL.

Nickel Bacitracin showed an MIC (Trichomonas vaginalis [2]; T. vaginalis isolate 1910) of 2500 µg/mL and an MIC (Trichomonas vaginalis [2]; T. vaginalis isolate UCH1) of 1250 µg/mL.
